Data set [1] can be described thus: Plasma clearance pharmacokinetics in rats. In kind it is in vivo, Sprague-Dawley rats. The conditions noted are these: rat, free drug. On the procedure: Pharmacokinetic plasma clearance and stability of ADC were investigated in rats and cynomolgus monkeys. Plasma concentration was measured over time. […] Rats are a non-specific model for ErbB receptor antibodies, since the rat is not known to express HER2 receptor proteins.
AUC inf is the area under the plasma concentration-time curve from time of dosing to infinity and is a measure of the total exposure to the measured entity (drug, ADC). CL is defined as the volume of plasma cleared of the measured entity in unit time and is expressed by normalizing to body weight. T1/2 term is the half-life of the drug in the body measured during its elimination phase.
Animals were dosed by bolus tail vein injection (IV Push). […] Total antibody was measured by ELISA—ECD/GxhuFc-HRP. Antibody drug conjugate was measured by ELISA—MMAE/MMAF/ECD-Bio/SA-HRP.

The subject of another data set is SK-BR-3 cells. The experiment in a line: In vitro cell proliferation assay (CellTiter-Glo), SK-BR-3 cells. It is filed as cell-based, human. The conditions noted are these: ADC incubated 3-5 days.
The test system of data set [2] is CD30+ cell line Karpas 299. The experiment in a line: Cytotoxicity determination (resazurin, General Procedure I), Karpas 299. To be noted: Karpas 299, 96 hours; for IC50: resazurin. In kind it is cell-based, human. On the procedure: General Procedure I—Cytotoxicity determination. To evaluate the cytotoxicity of Exemplary Conjugates 7-10, cells were seeded at approximately 5-10,000 per well in 150 μl of culture medium then treated with graded doses of Exemplary Conjugates 7-10 in quadruplicates at the initiation of assay. Cytotoxicity assays were carried out for 96 hours after addition of test compounds. Fifty μl of the resazurin dye was added to each well during the last 4 to 6 hours of the incubation to assess viable cells at the end of culture. Dye reduction was determined by fluorescence spectrometry using the excitation and emission wavelengths of 535 nm and 590 nm, respectively. For analysis, the extent of resazurin reduction by the treated cells was compared to that of the untreated control cells.

We go through 5 compounds from patent US7964567B2, “Monomethylvaline compounds capable of conjugation to ligands” (Seattle Genetics, Inc., priority 2003, dated 2011).

Square brackets hold non-standard residues; d marks the D form. Peptide text beside a SMILES is read from it. * marks the point of attachment. Dolaproine = CO[C@@H]([C@@H]1CCCN1)[C@@H](C)C(=O)O; Dil = CC[C@H](C)[C@H](NC)[C@@H](CC(=O)O)OC; X1 = C[C@@H](N*)[C@@H](O)c1ccccc1; NMeV = CN[C@H](C(=O)O)C(C)C

As usually defined, the Cmax is the highest concentration seen after dosing. As usually defined, the IC50 is the concentration that inhibits the measured activity by half. A higher IC50 goes with weaker potency in that assay.

Method for SK-BR-3 cells: Cell-based in vitro assays were used to measure viability (proliferation), cytotoxicity, and induction of apoptosis (caspase activation) of the ADC of the invention.
The homogeneous assay procedure involves adding the single reagent (CellTiter-Glo® Reagent) directly to cells cultured in serum-supplemented medium. Cell washing, removal of medium and multiple pipetting steps are not required. The system detects as few as 15 cells/well in a 384-well format in 10 minutes after adding reagent and mixing. The cells may be treated continuously with ADC, or they may be treated and separated from ADC.
The homogeneous “add-mix-measure” format results in cell lysis and generation of a luminescent signal proportional to the amount of ATP present. The amount of ATP is directly proportional to the number of cells present in culture. […] Viable cells are reflected in relative luminescence units (RLU). […] Data can be recorded by luminometer or CCD camera imaging device. The luminescence output is presented as relative light units (RLU), measured over time.
Control wells were prepared containing medium and without cells. • 3. […] The plate was incubated at room temperature for 10 minutes to stabilize the luminescence signal. • 8. Luminescence was recorded and reported in graphs as RLU=relative luminescence units.

The compound `CC[C@H](C)[C@@H]([C@@H](CC(=O)N1CCC[C@H]1[C@H](OC)[C@@H](C)C(=O)N[C@@H](Cc1ccccc1)C(=O)O)OC)N(C)C(=O)[C@@H](NC(=O)[C@@H](NC)C(C)C)C(C)C` [Compound 2, N-methylvaline-valine-dolaisoleuine-dolaproine-phenylalanine] (H-[NMeV]V[Dil][Dolaproine]F-OH) showed a Cmax in data set [1] (Sprague-Dawley, plasma, intravenous, 200 ug/kg) of 280 ng/mL. Moreover, the half-life in data set [1] (Sprague-Dawley, plasma, intravenous, 200 ug/kg, 200 μg/kg, read-out: T½ Term. (converted)) was 5.38 h. Also, in data set [1] (200 μg/kg), the AUCinf came out at 0.99 µg·days/mL and the CL turned out to be 8.5 mL/h/kg.
On to `CC[C@H](C)[C@@H]([C@@H](CC(=O)N1CCC[C@H]1[C@H](OC)[C@@H](C)C(=O)N[C@H](C)[C@@H](O)c1ccccc1)OC)N(C)C(=O)[C@@H](NC(=O)[C@@H](NC)C(C)C)C(C)C` [MMAE, mono-methyl auristatin E, reference compound] (H-[NMeV]V[Dil][Dolaproine]-X1), for which, in data set [1] (206 μg/kg), the AUCinf is 3.71 µg·days/mL, the CL is 2.61 mL/h/kg and the “T½ Term.” value came to 17.8 h.
Regarding “H-MC-vc-PAB-MMAE: trastuzumab conjugated via a cysteine to MC-val-cit-PAB-MMAE; preparations of different loading”, the “IC50 (μg ADC/ml)” value in the data set with SK-BR-3 cells amounted to 0.015 μg ADC/ml.
Consider cAC10-9: cAC10 Conjugate of Compound 9, for which, in data set [2], the “activity compared with cAC10-val-cit-MMAE” value is listed as “slightly more active” and the concentration for half-maximal inhibition (IC50) was determined as 0.5 ng/mL.
For the compound “cAC10-val-cit-MMAE: cAC10 (anti-CD30) val-cit MMAE conjugate used as comparator [reference compound]”, the half-inhibitory concentration (IC50) in data set [2] came to 6 ng/mL.
